Measurements published in patent publication US20260128119A1, “SCREENING METHODS FOR ACINETOBACTER BAUMANNII SPOT ENZYME MODULATORS” (priority 2022, published 2026).

Assays:
[1] = tested on: SpoTAb^NTD; experiment: Isothermal titration calorimetry (ITC) of ligand binding to SpoTAb^NTD; design: species or system Acinetobacter baumannii
From the text: This is also the case with the specialisation of SpoTAb as a monofunctional hydrolase where the pseudo-SYNTH domain has evolved into a strictly regulatory/structural domain. […] These involve the residues that coordinate adenosine and guanosine (R249 to N241, R277 to E267 and Y329 to N304) and the majority of phosphate-coordinating groups. Crucially, the catalytic residues D272 and Q347 are substituted for S263 and T321, respectively. […]; Roghanian et al., Mol Cell, 2021).
To directly validate the lack of pppGpp-mediated regulation in SpoTAb, we characterised the interaction between pppGpp and SpoTAb^NTD by ITC. […] Following the experimental approach used earlier for SpoTEc (Roghanian et al., Mol Cell, 2021), we next grafted the allosteric site of A. baumannii RelA (^236RelA^246) onto SpoTAb^NTD (replacing ^201SpoTAb^211).
The essential role of the divalent manganese ion Mn^2+ in (p)ppGpp pyrophosphate hydrolysis is well documented for both Rel (Hogg et al., Cell, 2004; Takada et al., Nucleic Acids Res, 2021; Avarbock et al., Biochemistry, 2000; Van Nerom et al., Acta Crystallogr F Struct Biol Commun, 2019) and SpoTEc (Heinemeyer et al., Eur J Biochem, 1978).

[2] = tested on: SpoTAb; experiment: HD (ppGpp hydrolysis) activity of SpoTAb in presence of added factors; format: biochemical, Acinetobacter baumannii; conditions: metal-free full-length SpoTAb (completely HD inactive)
From the text: FIG. 1. Full-length monomeric A. baumannii SpoT adopts a compact “mushroom”-shaped HD-active τ-state. (a) Structure of “mushroom”-shaped SpoTAb-ppGpp complex in the τ-state. The domain organization, from N to C terminus: NTD domains hydrolase (HD), pseudo-synthetase (pseudo-SYNTH) and Core, and CTD domains, TGS, Helical (HEL), Zn-finger (ZFD) and RNA recognition motif (RRM). The ppGpp alarmone is labelled. (b) Cartoon representation the SpoTAb. The “stem” of the mushroom is formed by the enzymatic HD domain and the “cap” by the regulatory domains: NTD pseudo-SYNTH domain and the CTD domains. (c) Ribbon representation of the SpoTAb-ppGpp complex. The α6/α7 motif is held in the hydrolysis-compatible position by the folded Core domain and the TGS β-hairpin, with the Core domain communicating allosteric signals to HD from the regulatory domains. […] (e) Analytical size exclusion chromatography (SEC) of SpoTAb supports its monomeric nature in solution. (f) Experimental X-ray scattering (SAXS) analysis of SpoTAb at 8 mg/mL further confirms the monomeric nature of SpoTAb. […] (g) Ab initio envelope of SpoTAb reconstructed from the experimental SAXS data superimposed on the crystal structure.
While the SYNTH and TGS domains are sequestered in the “cap”, the HD hydrolase stands out unconfined and primed for (p)ppGpp hydrolysis. […]

[3] = target: the molecule itself; experiment: SEC-SAXS and analytical size exclusion chromatography in solution (oligomeric state, self-association)

Nc1nc2c(ncn2[C@@H]2O[C@H](COP(=O)(O)OP(=O)(O)O)[C@@H](O)[C@H]2O)c(=O)[nH]1 [GDP]
GDP binding by SpoTAb [1]: does not bind

[Mn+2] [Mn^2+]
HD activity upon addition to metal-free enzyme [2]: readily restored

Nc1nc2c(ncn2C2OC(COP(=O)(O)OP(=O)(O)OP(=O)(O)O)C(OP(=O)(O)OP(=O)(O)O)C2O)c(=O)[nH]1 (stereo not shown) [pppGpp, guanosine pentaphosphate]
allosteric binding of pppGpp [1]: does not bind

B1: Acinetobacter baumannii SpoT enzyme (enzyme)
chain: MPGEEVSQAKQQLKLIIDPYLSVSEVEKVLAACDFGDLAHTGITRKSGEPYILHPIAVSCILANMRLDPETLMAALLHDVIEDTQYTKDDIIERFGQTVAELVDGVTKLSQSSDKEYNKAASFRKILQATLQDPRVIIIKLADRYHNMTTLGALRPDKRARIAQETFDIFVPMARLVGMNEMADNLENLCYQNLDLDMFDNVQNALLQTKPERCKYQSIWEQNLAELLHNYHIQGRIKKKNNNIELLRHFVKNEMDLQELTHSHAFEIVLQSIADCDRLVAALKENFQVIQYQDHIRRPLPGGNQSLMIKLKGEKTTLSLTIQTELMRKAARFGVVLGENAPQTCRSAIQASMQNLNTLIDGECAKTTFNDLLDYLHQEKIWVYTPHGQLHELPQGATVVDFAYSASLFLGNHAVGAKVDGEIKPLSTPLVSGQVIEIITDVLATPNPDWLSFINTQKARRALQHVLKDQDIEEQRLVGAQALSRALKLFNRSINDLSDADWLDLLQWRHIDNKDALFEQIAVGDLLPQLVANHLFANDKHPRAENSDRLIQGTEGIDVKYAHCCNPILGDPIQGHLTRRGLIVHRIRCHNLLHEQHLHPENIMPLQWKADDVDDVRFTAYLAIYMAMNDEQVSDLIYQCRKNNAGVEMVHSNEQRTFVNIVVNNRKHIAKVIRDLRMHYGFPRIERLDAPAPQMEISKVS
notes: Full-length wild-type SpoTAb; also called SpoTAb; A. baumannii SpoT
binding result [3]: no binding (tested: 8 mg/mL)
